Results as given in patent publication US20220347190A1, “TREATMENT COMPRISING FXR AGONISTS” (Novartis AG, priority 2019, published 2022).
“Also recorded” adds a separate entry of the source. Where two headings read alike, the source gives them in different places.

Assays:
[1] = system: C57BL/6J mice on HF/NASH diet; assay: Drug treatment study in mice on HF/NASH diet (Example 1); format: in vivo
Procedure: Studies were performed in compliance with Swiss guidelines for animal experimentation. Adult male C57BLJ6J mice were housed with ad libitum access to water and food. Mice were fed a HF/NASH diet (40 kcal % fat, 2% cholesterol, 40 kcal % carbohydrate, Research Diets, D09100301 or SSniff Special Diets, supplemented with a fructose-sucrose solution (42 g/L, 55% fructose and 45% sucrose by weight) in drinking water).
Total body fat and lean mass were analyzed by a nuclear magnetic resonance (NMR) and liver fat was measured by magnetic resonance imaging (MRI). […] Dietary intervention studies: mice fed a HF/NASH diet for 8 weeks were switched to normal diet (ND and water) for 12 weeks.
Drug treatment studies: mice exposed to HF/NASH diet for 20 weeks were treatment with LJP305 (1 mg/kg), GS-0976 (10 mg/kg) or vehicle (0.5% methylcellulose, 0.5% Tween 80 in water) p.o. once daily for 12 weeks while remaining on HF/NASH diet. At the end of the studies, blood and tissue samples were collected for analyses.
Liver samples were analyzed for collagen (Quickzyme), lipids and triglycerides (Cayman). Relative gene expression was calculated by normalizing Ct values of genes of interest against 18s (liver) or Idh3b (fat, ileum). Serum TIMP-1 (R&D Systems Inc.), PIII-NP (N-terminal procollagen III propeptide) (Cusabio Biotech Co.), α-fetoprotein (R&D Systems Inc.), leptin, and adiponectin (Meso Scale Discovery) were measured.
Paraffin-embedded tissue was stained with hematoxylin/eosin (H&E) and picrosirius red. IBA1 (ionized calcium-binding adapter molecule 1)-positive crown-like structures (Abcam, ab178846), Ly6b (BioRad, MCA771), UCP-1 (Abcam, ab109839) or ZO-1 (Invitrogen, 14-9776-80) were stained (Ventana Discovery XT) followed by digital (Aperio ScanScope XT, Leica Biosystems) and automated image analysis (HALO, Indica Labs).

[2] = system: NASH patients; details: cited from earlier work
[3] = system: healthy volunteers; details: cited from earlier work
[4] = system: patients with biopsy-proven NASH and fibrosis stages 2-3
Text: Prespecified endpoints assessed at week 12 included overall safety and changes in alanine aminotransferase (ALT), hepatic fat fraction (HFF), gamma glutamyl transferase (GGT), and body weight.

[5] = system: NASH patients
[6] = system: NASH patients; details: cited from earlier work; remark: listed apart in the source
[7] = GS-0976 10 mg/kg p.o. once daily for 12 weeks, HF/NASH diet

SMILES: COc1ccccc1[C@H](Cn1c(=O)n(C(C)(C)C(=O)O)c(=O)c2c(C)c(-c3ncco3)sc21)OC1CCOCC1 [GS-0976, 2-[1-{(2R)-2-(2-methoxyphenyl)-2-[(oxan-4-yl)oxy]ethyl}-5-methyl-6-(1,3-oxazol-2-yl)-2,4-dioxo-1,4-dihydrothieno[2,3-d]pyrimidin-3(2H)-yl]-2-methylpropanoic acid]
- elevation of circulating leptin levels vs vehicle [1, 7]: 2 fold
- increase in total fat mass vs vehicle [1, 7]: 27%
- increase in visceral and subcutaneous fat vs vehicle [1, 7]: 30%
- mean body weight above vehicle-treated mice ([1]; GS-0976 10 mg/kg p.o. once daily, end of 12-week treatment, HF/NASH diet): 7%
- liver gene expression (lipid metabolism genes) ([1]; GS-0976 10 mg/kg, liver transcriptome): induced multiple genes known to play roles in lipid metabolism
- effect on blood triglycerides and peripheral obesity ([1]; NASH mice, 12-week treatment): elevated blood triglycerides and peripheral obesity
- body weight effect (in words) ([1]; chronic treatment, HF/NASH diet, vs vehicle): significant increase in body weight
- effect of therapeutic treatment on established NASH with fibrosis ([1]; p.o. once daily for 12 weeks after 20 weeks of HF/NASH diet): resolved established NASH with fibrosis
- plasma triglycerides (TG) ([2]; NASH patients): Hypertriglyceridemia; also recorded: elevated plasma triglycerides
- steatosis and MRI-PDFF in NASH subjects ([2]; NASH subjects): improve steatosis and improvements in MRI-PDFF
- liver fat, serum TIMP-1 and liver injury ([2]; clinical phase 2 NASH studies, 12 weeks): reductions in liver fat, serum TIMP-1, and liver injury

SMILES: COc1cc(C(=O)N2CCC3(CC2)CC(=O)c2cc(-c4cncc(C(=O)O)c4)ccc2O3)cc2c1c(C)cn2C1CC1 [MK-4704]
- plasma triglycerides [3]: Hypertriglyceridemia

SMILES: O=C(O)c1cc(F)c2nc(N3C4CCC3CC(OCc3c(-c5ccccc5OC(F)(F)F)noc3C3CC3)C4)sc2c1 [Tropifexor, 2-[(1R,3r,5S)-3-({5-cyclopropyl-3-[2-(trifluoromethoxy)phenyl]-1,2-oxazol-4-yl}methoxy)-8-azabicyclo[3.2.1]octan-8-yl]-4-fluoro-1,3-benzothiazole-6-carboxylic acid]
- frequency of serious adverse events ([4]; 140 μg and 200 μg vs placebo): low and comparable across groups
- low density lipoprotein-cholesterol (LDL-C) ([4]; 140 μg and 200 μg, 12 weeks): dose-related increase
- treatment discontinuation rate due to pruritus ([4]; Tropifexor 140 μg): 2%
- ALT, LS mean absolute change (SE) from baseline to Week 12 ([4]; Tropifexor 140 μg once daily): −20.1 (4.57) U/L
- Body weight, LS mean absolute change (SE) from baseline to Week 12 ([4]; Tropifexor 140 μg once daily): −2.46 (0.38) kg
- GGT, LS mean absolute change (SE) from baseline to Week 12 ([4]; Tropifexor 140 μg once daily): −39.2 (3.70) U/L
- pre-specified endpoints at week 12 ([4]; Tropifexor 200 μg): Pre-specified endpoints were met
- treatment discontinuation rate due to pruritus ([4]; Tropifexor 200 μg): 6%
- ALT, LS mean absolute change (SE) from baseline to Week 12 ([4]; Tropifexor 200 μg once daily): −23.6 (4.48) U/L
- Body weight, LS mean absolute change (SE) from baseline to Week 12 ([4]; Tropifexor 200 μg once daily): −3.20 (0.37) kg
- GGT, LS mean absolute change (SE) from baseline to Week 12 ([4]; Tropifexor 200 μg once daily): −40.9 (3.62) U/L
- share of patients with pruritus whose events were of mild (Grade 1) severity ([4]; both Tropifexor groups (140 μg and 200 μg)): > 60%
- ALT, HFF and body weight after 12 weeks (in words) ([4]; higher doses (140 μg and 200 μg)): robust and dose-dependent decreases
- efficacy based on biomarkers at Week 12 ([5]; 60 and 90 μg): anti-inflammatory and anti-steatotic efficacy
- tolerability ([5]; up to 90 μg daily): generally well tolerated up to 90 μg daily without safety signals

SMILES: CC[C@H]1[C@@H](O)[C@@H]2[C@H](CC[C@]3(C)[C@@H]([C@H](C)CCC(=O)O)CC[C@@H]23)[C@@]2(C)CC[C@@H](O)C[C@@H]12 [obeticholic acid, 6α-ethyl-chenodeoxycholic acid]
- adverse effects of long term administration [6]: associated with pruritus and lipid abnormalities
